≈ marks a conversion by molar mass, not a printed value. Calls of active or inactive are those of the source. No cut-off for these calls is given here.

For test [1], the system named is Enterococcus faecium. The test can be described thus: Antibacterial activity against Enterococcus faecium C15 incubated for 24 hrs by microdilution assay. The class given is functional.
Test [2] has as its system Staphylococcus aureus. The test can be described thus: Antibacterial activity against Staphylococcus aureus ATCC 29247 at 90 uM incubated for 24 hrs by microdilution assay. The format is functional, organism-based.
The subject of test [3] is Staphylococcus aureus. Description: Antibacterial activity against Staphylococcus aureus ATCC 25923 at 90 uM incubated for 24 hrs by microdilution assay. The format is functional, organism-based.
The subject of test [4] is Enterococcus faecium. Description: Antibacterial activity against Enterococcus faecium ATCC 35667 at 90 uM incubated for 24 hrs by microdilution assay. The format is functional, organism-based.
Test [5] deals with Staphylococcus aureus. The test can be described thus: Bactericidal activity against Staphylococcus aureus ATCC 29247 at 90 uM incubated for 24 hrs by microdilution assay. The class given is functional, organism-based.
Test [6] concerns Staphylococcus aureus. The test can be described thus: Bactericidal activity against Staphylococcus aureus ATCC 25923 at 90 uM incubated for 24 hrs by microdilution assay. The class given is functional, organism-based.
Test [7] relates to Enterococcus faecium. The test can be described thus: Bactericidal activity against Enterococcus faecium ATCC 35667 at 90 uM incubated for 24 hrs by microdilution assay. The format is functional, organism-based.
In test [8] the test system is Enterococcus faecium. The test can be described thus: Bactericidal activity against Enterococcus faecium C15 at 90 uM incubated for 24 hrs by microdilution assay. The class given is functional, organism-based.
A further test relates to HaCaT. The test can be described thus: Cytotoxicity against human HaCaT cells assessed as reduction in cell viability incubated for 4 days by CellTiter 96 aqueous one solution assay. The class given is cell-based. Particulars: 96 h.
The subject of another test is NHDF. The test can be described thus: Cytotoxicity against human HDF cells assessed as reduction in cell viability incubated for 7 days by CellTiter 96 aqueous one solution assay. The format is functional, cell-based. Particulars: 168 h.
Test [9] has as its system Klebsiella pneumoniae. Description: Antibacterial activity against Klebsiella pneumoniae ATCC 13883 at 90 uM incubated for 24 hrs by microdilution assay. The format is functional, organism-based.
The test system of test [10] is Klebsiella pneumoniae. Description: Antibacterial activity against Klebsiella pneumoniae ATCC 12657 at 90 uM incubated for 24 hrs by microdilution assay. The class given is functional, organism-based.
Test [11] concerns Acinetobacter baumannii. The test can be described thus: Antibacterial activity against Acinetobacter baumannii ATCC 19606 at 90 uM incubated for 24 hrs by microdilution assay. The format is functional, organism-based. Particulars: ATCC 19606 = CIP 70.34 = JCM 6841.
In test [12] the test system is Acinetobacter baumannii. Description: Antibacterial activity against Acinetobacter baumannii ATCC 17978 at 90 uM incubated for 24 hrs by microdilution assay. The format is functional, organism-based.
The test system of test [13] is Pseudomonas aeruginosa. Description: Antibacterial activity against Pseudomonas aeruginosa ATCC 10145 at 90 uM incubated for 24 hrs by microdilution assay. The class given is functional, organism-based.
For test [14], the system named is Pseudomonas aeruginosa. Description: Antibacterial activity against Pseudomonas aeruginosa ATCC 49189 at 90 uM incubated for 24 hrs by microdilution assay. The class given is functional, organism-based.
The test system of test [15] is Enterobacter cloacae subsp. cloacae. Description: Antibacterial activity against Enterobacter cloacae ATCC 13047 at 90 uM incubated for 24 hrs by microdilution assay. The format is functional.
In test [16] the test system is Klebsiella aerogenes. The test can be described thus: Antibacterial activity against Enterobacter aerogenes ATCC 13048 at 90 uM incubated for 24 hrs by microdilution assay. The class given is functional.
Test [17] deals with Klebsiella pneumoniae. The test can be described thus: Bactericidal activity against Klebsiella pneumoniae ATCC 13883 at 90 uM incubated for 24 hrs by microdilution assay. The format is functional, organism-based.
Test [18] deals with Klebsiella pneumoniae. The test can be described thus: Bactericidal activity against Klebsiella pneumoniae ATCC 12657 at 90 uM incubated for 24 hrs by microdilution assay. The format is functional, organism-based.
Test [19] concerns Acinetobacter baumannii. The test can be described thus: Bactericidal activity against Acinetobacter baumannii ATCC 19606 at 90 uM incubated for 24 hrs by microdilution assay. The class given is functional, organism-based. Particulars: ATCC 19606 = CIP 70.34 = JCM 6841.
In test [20] the test system is Acinetobacter baumannii. Description: Bactericidal activity against Acinetobacter baumannii ATCC 17978 at 90 uM incubated for 24 hrs by microdilution assay. The class given is functional, organism-based.
Test [21] deals with Pseudomonas aeruginosa. Description: Bactericidal activity against Pseudomonas aeruginosa ATCC 10145 at 90 uM incubated for 24 hrs by microdilution assay. The class given is functional, organism-based.
In test [22] the test system is Pseudomonas aeruginosa. The test can be described thus: Bactericidal activity against Pseudomonas aeruginosa ATCC 49189 at 90 uM incubated for 24 hrs by microdilution assay. The format is functional, organism-based.
Test [23] deals with Enterobacter cloacae subsp. cloacae. The test can be described thus: Bactericidal activity against Enterobacter cloacae ATCC 13047 at 90 uM incubated for 24 hrs by microdilution assay. The class given is functional.
Test [24] concerns Klebsiella aerogenes. The test can be described thus: Bactericidal activity against Enterobacter aerogenes ATCC 13048 at 90 uM incubated for 24 hrs by microdilution assay. The format is functional.
The nature of test [25]: Selectivity ratio of IC50 for human HaCaT cells to IC50 for human HDF cells by CellTiter 96 aqueous one solution assay.
In test [26] the test system is Enterococcus faecium. Description: Antibacterial activity against Enterococcus faecium ATCC 35667 incubated for 24 hrs by microdilution assay. The format is functional.
The subject of test [27] is Staphylococcus aureus. The test can be described thus: Antibacterial activity against Staphylococcus aureus ATCC 29247 incubated for 24 hrs by microdilution assay. The format is functional.
Test [28] deals with Staphylococcus aureus. The test can be described thus: Antibacterial activity against Staphylococcus aureus ATCC 25923 incubated for 24 hrs by microdilution assay. The class given is functional.

Turning to `C=C1CC[C@]2(OC1)O[C@H]1C[C@H]3[C@@H]4CC[C@H]5[C@H](O)[C@@H](O)C[C@@H](O[C@@H]6O[C@H](C)[C@H](O)[C@H](O)[C@H]6O)[C@]5(C)[C@H]4CC[C@]3(C)[C@H]1[C@@H]2C`, in the test with Enterococcus faecium [1], the MIC75 came to 84.3 µM (≈ 50 µg/mL). In addition, the result with Staphylococcus aureus [2], with Staphylococcus aureus [3], in the test with Enterococcus faecium [4], in the test with Staphylococcus aureus [5], in the test on Staphylococcus aureus [6] and in the test with Enterococcus faecium [7] was inactive. The outcome in the test with Enterococcus faecium [8], in the test with Klebsiella pneumoniae [9], with Klebsiella pneumoniae [10], with Acinetobacter baumannii [11], in the test on Acinetobacter baumannii [12] and in the test on Pseudomonas aeruginosa [13] was inactive. Besides, the result (in the test on Pseudomonas aeruginosa [14]; in test [15]; in the test with Klebsiella aerogenes [16]; in the test with Klebsiella pneumoniae [17]; in the test with Klebsiella pneumoniae [18]; in the test with Acinetobacter baumannii [19]) was inactive. For the same compound, the result (in the test on Acinetobacter baumannii [20]; in the test with Pseudomonas aeruginosa [21]; with Pseudomonas aeruginosa [22]; in test [23]; with Klebsiella aerogenes [24]) was inactive. Besides, the IC50 with HaCaT amounted to 42.1 µM; with NHDF, 8.9 µM. Also, in test [25], the “Ratio IC50” value was 3 - 11.
Take `C[C@@H]1CC[C@]2(OC1)O[C@H]1C[C@H]3[C@@H]4CC[C@H]5[C@H](O)[C@H](O)C[C@@H](O[C@@H]6O[C@H](C)[C@H](O)[C@H](O)[C@H]6O)[C@]5(C)[C@H]4CC[C@]3(C)[C@H]1[C@@H]2C`: the MIC75 in the test with Enterococcus faecium [1] is 84.1 µM (≈ 50 µg/mL). The result with Staphylococcus aureus [2], in the test with Staphylococcus aureus [3], in the test with Enterococcus faecium [4], in the test with Staphylococcus aureus [5], with Staphylococcus aureus [6] and in the test with Enterococcus faecium [7] was inactive. The result with Enterococcus faecium [8], in the test with Klebsiella pneumoniae [9], in the test on Klebsiella pneumoniae [10], with Acinetobacter baumannii [11], with Acinetobacter baumannii [12] and in the test with Pseudomonas aeruginosa [13] was inactive. In addition, the outcome (in the test on Pseudomonas aeruginosa [14]; in test [15]; with Klebsiella aerogenes [16]; with Klebsiella pneumoniae [17]; in the test on Klebsiella pneumoniae [18]; in the test with Acinetobacter baumannii [19]) was inactive. Further, the outcome (in the test on Acinetobacter baumannii [20]; in the test on Pseudomonas aeruginosa [21]; in the test on Pseudomonas aeruginosa [22]; in test [23]; in the test on Klebsiella aerogenes [24]) was inactive. The 50% inhibitory concentration (IC50) in the test on HaCaT came out at 74.9 µM; in the test with NHDF, 6.6 µM. In [25], the “Ratio IC50” value was 3 - 11.
For `C[C@@H]1CC[C@]2(OC1)O[C@H]1C[C@H]3[C@@H]4CC[C@H]5[C@H](O)[C@@H](O)C[C@@H](O[C@@H]6O[C@H](C)[C@H](O)[C@H](O)[C@H]6O)[C@]5(C)[C@H]4CC[C@]3(C)[C@H]1[C@@H]2C`, the MIC75 in the test on Enterococcus faecium [26] and against Enterococcus faecium [1] was 84.1 µM (≈ 50 µg/mL) throughout. The outcome in the test on Staphylococcus aureus [2], with Staphylococcus aureus [3], in the test with Staphylococcus aureus [5], in the test with Staphylococcus aureus [6], with Enterococcus faecium [7] and in the test on Enterococcus faecium [8] was inactive. For the same compound, the result in the test on Klebsiella pneumoniae [9], with Klebsiella pneumoniae [10], in the test with Acinetobacter baumannii [11], in the test with Acinetobacter baumannii [12], in the test on Pseudomonas aeruginosa [13] and in the test with Pseudomonas aeruginosa [14] was inactive. Moreover, the result (in test [15]; with Klebsiella aerogenes [16]; in the test with Klebsiella pneumoniae [17]; in the test with Klebsiella pneumoniae [18]; with Acinetobacter baumannii [19]; in the test on Acinetobacter baumannii [20]) was inactive. The outcome (in the test on Pseudomonas aeruginosa [21]; with Pseudomonas aeruginosa [22]; in [23]; with Klebsiella aerogenes [24]) was inactive. Also, the IC50 in the test on HaCaT stood at 36.3 µM; in the test on NHDF it was 8.6 µM. Also, the “Ratio IC50” value in [25] was 3 - 11.
For `COc1cccc2c1C(=O)c1c(O)c3c(c(O)c1C2=O)C[C@@](O)(C(=O)CO)C[C@@H]3O[C@H]1C[C@H](N)[C@H](O)[C@H](C)O1` [DOXORUBICIN], the results for the IC50 in the test with HaCaT and in the test on NHDF were 0.01 µM and 0.011 µM, respectively.
In the test with Enterococcus faecium [1], `C=C1CC[C@]2(OC1)O[C@H]1C[C@H]3[C@@H]4CC[C@H]5[C@H](O)[C@H](O)C[C@@H](O[C@@H]6O[C@H](C)[C@H](O)[C@H](O)[C@H]6O)[C@]5(C)[C@H]4CC[C@]3(C)[C@H]1[C@@H]2C` gave an MIC75 of 84.3 µM (≈ 50 µg/mL). The result in the test with Staphylococcus aureus [2], in the test with Staphylococcus aureus [3], in the test on Enterococcus faecium [4], in the test with Staphylococcus aureus [5], in the test on Staphylococcus aureus [6] and with Enterococcus faecium [7] was inactive. Besides, the result with Enterococcus faecium [8], in the test with Klebsiella pneumoniae [9], in the test with Klebsiella pneumoniae [10], in the test with Acinetobacter baumannii [11], in the test on Acinetobacter baumannii [12] and in the test on Pseudomonas aeruginosa [13] was inactive. The outcome (in the test on Pseudomonas aeruginosa [14]; in test [15]; in the test with Klebsiella aerogenes [16]; in the test with Klebsiella pneumoniae [17]; with Klebsiella pneumoniae [18]; in the test with Acinetobacter baumannii [19]) was inactive. The result (with Acinetobacter baumannii [20]; in the test with Pseudomonas aeruginosa [21]; with Pseudomonas aeruginosa [22]; in test [23]; with Klebsiella aerogenes [24]) was inactive. In addition, the values for the IC50 with HaCaT and with NHDF were 47.4 µM and 16.5 µM, respectively. Also, the “Ratio IC50” value in test [25] is reported as 3 - 11.
Take `O=C(N[C@H](CO)[C@H](O)c1ccc([N+](=O)[O-])cc1)C(Cl)Cl` [CHLORAMPHENICOL]: the MIC75 in the test with Staphylococcus aureus [27], in the test on Staphylococcus aureus [28], in the test on Enterococcus faecium [26] and with Enterococcus faecium [1] was 9.7 µM (≈ 3.13 µg/mL) in each case. In addition, the outcome in the test on Staphylococcus aureus [5], in the test on Staphylococcus aureus [6], in the test on Enterococcus faecium [7] and in the test with Enterococcus faecium [8] was inactive.
